Here are results for two molecules from patent US20080119542A1, “METHODS OF USING ARTEMISININ-LIKE COMPOUNDS TO PREVENT OR DELAY THE APPEARANCE OF CANCER” (UNIVERSITY OF WASHINGTON, priority 2002, published 2008).

Series [1] relates to mammary tumors. The series can be described thus: Tumor development in DMBA-treated rats given weekly oral intubations of artemisinin. Type of series: in vivo, Female Sprague-Dawley rats. The note with it: for Percentage of Animals with Tumors: artemisinin 10 mg/kg weekly oral intubation. As for the experimental part: This Example describes a representative method for preventing or slowing the development of cancer in rats exposed to a carcinogen by administering artemisinin by weekly oral intubations.
Materials and Methods: Female Sprague-Dawley rats were administered a single intragastric dose of the carcinogen 7,12-dimethylbenz[a]anthracene (DMBA; Sigma Chemicals, St Louis, Mo.; 50 mg/kg body weight) suspended in olive oil (Sigma Chemicals, St Louis, Mo.; 25 mg/ml). Animals were randomly assigned to two treatment groups to receive either weekly oral intubations of artemisinin (Holley Pharmaceuticals, Fullerton, Calif.; 10 mg/kg at 10 mg/ml of olive oil) or olive oil (control). Artemisinin treatment began a week after DMBA administration. Animals were palpated for the presence of mammary tumors once weekly. The time and site of detection and size were recorded for each tumor in an animal.

The subject of series [2] is mammary tumors. The series can be described thus: Tumor development in DMBA-treated rats given artemisinin mixed in food. Type of series: in vivo, Female rats. The note with it: artemisinin 0.05% in food, approximately 10 mg/kg/day. The text has this: This Example describes a representative method for preventing or slowing the development of cancer in rats exposed to a carcinogen by providing artemisinin mixed in food.
Materials and Methods: Female rats were similarly treated with the carcinogen DMBA, as described in EXAMPLE 1. The rats were randomly assigned to two treatment groups. Artemisinin (0.05%) was mixed in the food of one group of animals starting the day immediately after DMBA treatment. Daily intake of artemisinin, based on the amount of food eaten each day, was estimated to be approximately 10 mg/kg/day. The other group of animals (controls) was given regular rat food.

The conditions of series [3]: cancer patient; oral 50 mg per day, intramuscular 60 mg/day, over 9 months; cited from earlier work.

As for `C[C@@H]1CC[C@H]2[C@@H](C)C(=O)O[C@@H]3O[C@@]4(C)CC[C@@H]1[C@]32OO4` [Artemisinin, artemisinin], the “Percentage of Animals with Tumors” value in series [1] (week 6 after DMBA) is 0%; in series [1] (week 6 after DMBA, listed as artemisinin), “none”; in series [1] (week 7 after DMBA), 9%; in series [1] (week 9 after DMBA), 9%; in series [1] (week 10 after DMBA), 9%; in series [1] (week 11 after DMBA), 9%. Also, the “Percentage of Animals with Tumors” value in series [1] (week 12 after DMBA) was found to be 27%; in series [1] (week 13 after DMBA), 45%; in series [1] (week 16 after DMBA), 45%; in series [1] (week 17 after DMBA), 45%; in series [1] (week 20 after DMBA) it was 54%; in series [1] (week 29 after DMBA) it was 64%. Besides, the “Percentage of Animals with Tumors” value in series [1] (week 31 after DMBA) was found to be 64%; in series [1] (week 38 after DMBA) it was 64%; in series [2] (week 6 after DMBA), 0%; in series [2] (week 7 after DMBA), 0%; in series [2] (week 8 after DMBA), 0%; in series [2] (week 9 after DMBA) it was 0%. In addition, the “Percentage of Animals with Tumors” value was 0% in series [2] (week 10 after DMBA) and “none” in series [2] (week 10 after DMBA, listed as artemisinin). The “Appearance of tumors in carcinogen-treated animals” value in series [1] (weekly artemisinin treatment vs olive oil controls) is reported as “delayed the appearance of tumors”.

Regarding `C[C@H]1[C@H](OC(=O)CCC(=O)O)O[C@@H]2O[C@@]3(C)CC[C@H]4[C@H](C)CC[C@@H]1[C@@]24OO3` [artesunate], the Adverse side effects entry in series [3] was “No apparent adverse side effects”.
